Laboratory results: patent US10174037B2, “Dihydropyrazolopyrimidinone compounds as PDE2 inhibitors” (Merck Sharp & Dohme Corp., priority 2015, dated 2019)
Where two headings read alike, the source gives them in different places.

Assays:
Rhesus PDE2A3 = Rhesus PDE2A3 (Macaca mulatta, UniProt B3VTJ2); test: PDE2 fluorescence polarization (IMAP FP) assay, rhesus PDE2A3; assay type: biochemical, rhesus macaque
human PDE2A1 = human PDE2A1 (Homo sapiens (Human), UniProt O00408); test: PDE selectivity IMAP FP assay, human PDE2A1; assay type: biochemical; conditions: Human PDE2
human PDE2A1, sequence (O00408 other isoform, or with tags, fused parts or gaps): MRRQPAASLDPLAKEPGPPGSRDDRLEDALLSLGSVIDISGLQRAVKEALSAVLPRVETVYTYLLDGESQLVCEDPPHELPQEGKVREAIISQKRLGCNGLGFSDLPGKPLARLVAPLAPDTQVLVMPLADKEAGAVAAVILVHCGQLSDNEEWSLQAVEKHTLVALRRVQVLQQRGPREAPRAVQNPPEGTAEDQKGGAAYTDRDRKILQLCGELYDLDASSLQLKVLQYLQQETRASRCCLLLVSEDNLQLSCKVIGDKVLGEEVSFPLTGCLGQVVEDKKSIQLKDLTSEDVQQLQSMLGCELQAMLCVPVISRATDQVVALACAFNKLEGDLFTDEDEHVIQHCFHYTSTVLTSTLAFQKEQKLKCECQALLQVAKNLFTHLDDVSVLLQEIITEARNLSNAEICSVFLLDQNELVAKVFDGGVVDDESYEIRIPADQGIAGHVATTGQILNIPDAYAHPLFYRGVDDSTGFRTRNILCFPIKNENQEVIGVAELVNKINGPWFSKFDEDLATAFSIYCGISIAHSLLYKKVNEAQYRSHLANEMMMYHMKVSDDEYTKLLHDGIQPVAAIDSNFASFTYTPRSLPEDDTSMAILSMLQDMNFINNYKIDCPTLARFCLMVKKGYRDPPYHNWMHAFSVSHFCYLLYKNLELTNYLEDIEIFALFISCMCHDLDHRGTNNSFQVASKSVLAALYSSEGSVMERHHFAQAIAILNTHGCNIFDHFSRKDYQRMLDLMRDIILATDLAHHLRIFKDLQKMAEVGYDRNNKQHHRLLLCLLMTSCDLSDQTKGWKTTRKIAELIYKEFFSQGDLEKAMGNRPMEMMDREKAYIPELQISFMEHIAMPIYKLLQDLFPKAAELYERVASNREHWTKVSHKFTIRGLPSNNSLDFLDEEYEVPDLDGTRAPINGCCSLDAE
In short: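 Compound titrations run against PDE2 in Tris HCl pH 7.2 buffer with MgCl2 and DTT for 60 min at room temperature, using 50 nM FAM-cAMP plus 1000 nM cGMP and enzyme giving 20% conversion.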

[1] = Lab B, read-out: Rhesus PDE2 Ki (nM) Lab B
[2] = Lab B, read-out: Human PDE2 Ki (nM) Lab B
[3] = Lab A, read-out: Rhesus PDE2 Ki (nM) Lab A
[4] = Lab A, read-out: Human PDE2 Ki (nM) Lab A

Rhesus PDE2A3, sequence (B3VTJ2 1-941): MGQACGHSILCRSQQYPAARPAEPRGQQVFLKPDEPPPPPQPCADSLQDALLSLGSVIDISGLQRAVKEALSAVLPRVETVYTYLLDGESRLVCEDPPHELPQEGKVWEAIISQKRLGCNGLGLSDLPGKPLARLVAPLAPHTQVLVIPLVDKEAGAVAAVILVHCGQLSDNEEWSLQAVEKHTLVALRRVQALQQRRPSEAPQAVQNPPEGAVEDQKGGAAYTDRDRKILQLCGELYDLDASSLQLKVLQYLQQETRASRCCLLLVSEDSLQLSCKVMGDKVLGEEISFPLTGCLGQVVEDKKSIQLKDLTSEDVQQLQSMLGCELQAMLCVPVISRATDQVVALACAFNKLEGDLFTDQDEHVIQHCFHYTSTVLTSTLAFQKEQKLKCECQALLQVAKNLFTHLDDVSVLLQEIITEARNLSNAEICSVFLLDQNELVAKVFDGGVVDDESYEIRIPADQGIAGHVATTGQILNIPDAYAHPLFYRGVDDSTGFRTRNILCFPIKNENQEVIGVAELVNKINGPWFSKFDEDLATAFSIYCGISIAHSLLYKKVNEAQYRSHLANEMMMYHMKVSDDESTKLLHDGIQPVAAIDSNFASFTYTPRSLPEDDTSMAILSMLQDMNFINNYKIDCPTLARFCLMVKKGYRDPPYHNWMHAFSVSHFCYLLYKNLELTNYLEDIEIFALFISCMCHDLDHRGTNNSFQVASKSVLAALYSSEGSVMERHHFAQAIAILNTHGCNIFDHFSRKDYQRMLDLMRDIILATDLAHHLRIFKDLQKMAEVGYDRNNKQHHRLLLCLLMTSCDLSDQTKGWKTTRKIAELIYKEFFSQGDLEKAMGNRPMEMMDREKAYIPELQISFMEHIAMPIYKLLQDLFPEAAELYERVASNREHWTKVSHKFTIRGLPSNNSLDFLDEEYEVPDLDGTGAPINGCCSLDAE

SMILES | Ki (Rhesus PDE2A3; [1]) | Ki (human PDE2A1; [2]) | Ki (Rhesus PDE2A3; [3]) | Ki (human PDE2A1; [4])
O=c1[nH]c(O)nc2c1c(CC(F)(F)F)nn2C(c1ccc(OC(F)(F)F)c(F)c1)C1CC1 (single isomer, unassigned) [Example 252, (R)- or (S)-1-(Cyclopropyl(3-fluoro-4-(trifluoromethoxy)phenyl)methyl)-6-hydroxy-3-(2,2,2-trifluoroethyl)-1H-pyrazolo[3,4-d]pyrimidin-4(5H)-one] | 68 nM | 73 nM | – | –
CC(c1ccc(C(F)(F)F)cc1)n1nc(C(F)(F)F)c2c(=O)[nH]c(O)nc21 (single isomer, unassigned) [Example 254, (R)- or (S)-6-Hydroxy-3-(trifluoromethyl)-1-(1-(4-(trifluoromethyl)phenyl)ethyl)-1H-pyrazolo[3,4-d]pyrimidin-4(5H)-one] | 102 nM | 121 nM | – | –
CC(c1ccc(C(F)(F)F)cc1)n1nc(CC(F)(F)F)c2c(=O)[nH]c(O)nc21 (single isomer, unassigned) [Example 256, (R)- or (S)-6-Hydroxy-3-(2,2,2-trifluoroethyl)-1-{1-[4-(trifluoromethyl)phenyl]ethyl}-1,5-dihydro-4H-pyrazolo[3,4-d]pyrimidin-4-one] | – | – | 166 nM | 126 nM
CC(C)C(c1ccc(C(F)(F)F)c(F)c1)n1nc(CC(F)(F)F)c2c(=O)[nH]c(O)nc21 (single isomer, unassigned) [Example 258] | 10 nM | 9.7 nM | – | –
CC(C)C(c1ccc(C(C)(C)C)cc1)n1nc(CC(F)(F)F)c2c(=O)[nH]c(O)nc21 (single isomer, unassigned) [Example 260, (R)- or (S)-1-(1-(4-tert-Butylphenyl)-2-methylpropyl)-6-hydroxy-3-(2,2,2-trifluoroethyl)-1H-pyrazolo[3,4-d]pyrimidin-4(5H)-one] | 26 nM | 25 nM | – | –
CC(c1ccc(C(F)(F)F)cc1)n1nc(C(F)(F)C(F)(F)F)c2c(=O)[nH]c(O)nc21 (single isomer, unassigned) [Example 266, (R)- or (S)-6-Hydroxy-3-(perfluoroethyl)-1-(1-(4-(trifluoromethyl)phenyl)ethyl)-1H-pyrazolo[3,4-d]pyrimidin-4(5H)-one] | 14 nM | 13 nM | – | –
CC(C)C(c1ccc(C(F)(F)F)cc1)n1nc(C(F)F)c2c(=O)[nH]c(O)nc21 (single isomer, unassigned) [Example 282, (S)- or (R)-3-(Difluoromethyl)-6-hydroxy-1-(2-methyl-1-(4-(trifluoromethyl)phenyl)propyl)-1H-pyrazolo[3,4-d]pyrimidin-4(5H)-one] | 51 nM | 59 nM | – | –
CC(c1ccc(OC(F)(F)F)c(F)c1)n1nc(C(F)F)c2c(=O)[nH]c(O)nc21 (single isomer, unassigned) [Example 287, (R)- or (S)-3-(Difluoromethyl)-1-(1-(3-fluoro-4-(trifluoromethoxy)phenyl)ethyl)-6-hydroxy-1H-pyrazolo[3,4-d]pyrimidin-4(5H)-one] | 44 nM | 38 nM | – | –
CC(c1ccc(OC(F)(F)F)c(F)c1)n1nc(CC#N)c2c(=O)[nH]c(O)nc21 (single isomer, unassigned) [Example 299, (R)- or (S)-2-(1-(1-(3-Fluoro-4-(trifluoromethoxy)phenyl)ethyl)-6-hydroxy-4-oxo-4,5-dihydro-1H-pyrazolo[3,4-d]pyrimidin-3-yl)acetonitrile] | 21 nM | 17 nM | – | –
CC(c1ccc(OC(F)(F)F)cc1)n1nc(CO)c2c(=O)[nH]c(O)nc21 (stereo not shown) [Example 5] | 126 nM | – | 77 nM | 59 nM
CC(c1ccc(C2CC2)cc1)n1nc(CO)c2c(=O)[nH]c(O)nc21 (stereo not shown) [Example 6, 1-(1-(4-Cyclopropylphenyl)ethyl)-6-hydroxy-3-(hydroxymethyl)-1H-pyrazolo[3,4-d]pyrimidin-4(5H)-one] | – | – | 78 nM | 50 nM

Now from value to compound:

Ki (Rhesus PDE2A3; [1]) | Ki (human PDE2A1; [2]) | Ki (Rhesus PDE2A3; [3]) | Ki (human PDE2A1; [4]) | SMILES
3.7 nM | 2.4 nM | – | – | CC(c1ccc(C(F)(F)F)cc1)n1nc(C(F)(F)F)c2c(=O)[nH]c(O)nc21 (single isomer, unassigned) [Example 255, (S)- or (R)-6-Hydroxy-3-(trifluoromethyl)-1-(1-(4-(trifluoromethyl)phenyl)ethyl)-1H-pyrazolo[3,4-d]pyrimidin-4(5H)-one]
1.5 nM | 2 nM | 0.96 nM | 0.68 nM | CC(c1ccc(C(F)(F)F)cc1)n1nc(CC(F)(F)F)c2c(=O)[nH]c(O)nc21 (single isomer, unassigned) [Example 257, (S)- or (R)-6-Hydroxy-3-(2,2,2-trifluoroethyl)-1-{1-(4-(trifluoromethyl)phenyl]ethyl}-1,5-dihydro-4H-pyrazolo[3,4-d]pyrimidin-4-one]
3.2 nM | 4 nM | – | – | CC(c1ccc(OC(F)(F)F)cc1)n1nc(C(F)F)c2c(=O)[nH]c(O)nc21 (single isomer, unassigned) [Example 274, (S)- or (R)-3-(Difluoromethyl)-6-hydroxy-1-(1-(4-(trifluoromethoxy)phenyl)ethyl)-1H-pyrazolo[3,4-d]pyrimidin-4(5H)-one]
1.2 nM | 1.6 nM | – | – | CC(c1ccc(C(F)(F)F)c(F)c1)n1nc(C(F)F)c2c(=O)[nH]c(O)nc21 (single isomer, unassigned) [Example 278, (S)- or (R)-3-(Difluoromethyl)-1-(1-(3-fluoro-4-(trifluoromethyl)phenyl)ethyl)-6-hydroxy-1H-pyrazolo[3,4-d]pyrimidin-4(5H)-one]
1.8 nM | 1.9 nM | – | – | O=c1[nH]c(O)nc2c1c(C(F)F)nn2C(c1ccc(C(F)(F)F)cc1)C1CC1 (single isomer, unassigned) [Example 279, (R)- or (S)-1-(Cyclopropyl(4-(trifluoromethyl)phenyl)methyl)-3-(difluoromethyl)-6-hydroxy-1H-pyrazolo[3,4-d]pyrimidin-4(5H)-one]
1.2 nM | 1.3 nM | – | – | CC(C)C(c1ccc(C(F)(F)F)cc1)n1nc(C(F)F)c2c(=O)[nH]c(O)nc21 (single isomer, unassigned) [Example 281, (R)- or (S)-3-(Difluoromethyl)-6-hydroxy-1-(2-methyl-1-(4-(trifluoromethyl)phenyl)propyl)-1H-pyrazolo[3,4-d]pyrimidin-4(5H)-one]
1.5 nM | 2.2 nM | – | – | CCC(c1ccc(C(F)(F)F)cc1)n1nc(C(F)F)c2c(=O)[nH]c(O)nc21 (single isomer, unassigned) [Example 286, (S)- or (R)-3-(Difluoromethyl)-6-hydroxy-1-(1-(4-(trifluoromethyl)phenyl)propyl)-1H-pyrazolo[3,4-d]pyrimidin-4(5H)-one]
1.6 nM | 2.4 nM | – | – | CC(c1ccc(OC(F)(F)F)c(F)c1)n1nc(C(F)F)c2c(=O)[nH]c(O)nc21 (single isomer, unassigned) [Example 288, (S)- or (R)-3-(Difluoromethyl)-1-(1-(3-fluoro-4-(trifluoromethoxy)phenyl)ethyl)-6-hydroxy-1H-pyrazolo[3,4-d]pyrimidin-4(5H)-one]
8.6 nM | 7.3 nM | – | – | N#CCc1nn(C(c2ccc(C(F)(F)F)cc2)C2CC2)c2nc(O)[nH]c(=O)c12 (single isomer, unassigned) [Example 296]
